Reference: US7425218B2, “Nitric oxide-releasing medical devices” (The United States of America as represented by the …, priority 1992, dated 2008)
Counter-ions that a name gives are not always drawn.

Experiment: decomposition and nitric oxide production at pH 7 and 25° C.
Assay type: physicochemical
Conditions: for half-life of decomposition: for the carbethoxy compound based on loss of the 252-nm chromophore in the UV spectrum
Protocol: The analysis of NO adducts, i.e., polymers containing the nitric oxide-releasing N2O2^− functional group, was done on a nitric oxide analyzer and was patterned after the procedure of Maragos et al., J. Med. Chem., 34, 3242-3247 (1991). A reactor vessel fitted with a septum was charged with a small aliquot of the polymer to be studied and the system was purged with helium for several minutes to remove traces of oxygen. […]
To a solution of 510 mg (1.97 mmol) of 1-(N-acetyl-L-methionyl)piperazine in 1 ml of methanol was added 428 μl (1.97 mmol) of 25% sodium methoxide in methanol. The system was degassed and charged with 40 psi of nitric oxide. After exposure of the solution to NO for 120 h, the pressure was released and the solid product was collected by filtration, washed with ether, and dried to give 27 mg of 1-[4-(N-acetyl-L-methionyl)piperazin-l-yl]-1-oxo-2-hydroxydiazene, sodium salt, as a white solid: UV λmax (ε) 252 nm (12.0 mM^−1 cm^−1).
A solution of 20 g (0.126 mol) of ethyl 1-piperazinecarboxylate in 60 ml of methanol was placed in a Parr bottle. The solution was treated with 27.4 ml (0.126 mol) of 25% sodium methoxide in methanol. The system was evacuated, charged with 40 psi of nitric oxide and kept at 25° C. for 48 h. The white crystalline product was collected by filtration and washed with cold methanol as well as with copious amounts of ether. The product was dried under vacuum to give a 14.5 g (48%) yield of 1-(4-carbethoxypiperazin-1-yl)-1-oxo-2-hydroxydiazene, sodium salt: mp 184-5° C.; UV (0.01 M NaOH) λmax (ε) 252 nm (10.4 mM^−1 cm^−1); NMR (D2O) δ 1.25 (t, 3 H), 3.11 (m, 2 H), 3.68 (m, 2 H), 4.15 (q, 2 H). Anal Calcd. for C6H13N4O4Na: C, 35.00%; H, 5.42%; N, 23.33%; Na, 9.58%. Found: C, 34.87%; H, 5.53%; N, 23.26%; Na, 9.69%. The half-life of this compound at pH 7 and 25° C. was 5 min. This measurement was based on the loss of the 252-nm chromophore in the ultraviolet spectrum.

Row | SMILES | half-life of decomposition | moles of NO produced per mole of test agent
1 | CCOC(=O)N1CCN([N+]([O-])=N[O-])CC1.[Na+] [1-(4-carbethoxypiperazin-1-yl)-1-oxo-2-hydroxydiazene, sodium salt] | 5 min | 
2 | CSCC[C@H](NC(C)=O)C(=O)N1CCN([N+]([O-])=NO)CC1 [1-[4-(N-acetyl-L-methionyl)piperazin-l-yl]-1-oxo-2-hydroxydiazene, sodium salt] | 6.9 min | 1.72 moles of NO per mole of test agent
